Measurements as given in patent US10233195B2, “Anti-fibrotic pyridinones” (InterMune, Inc., priority 2014, dated 2019).

test system: TGF-b induced Endothelin-1 production; test: ET-1 assay: inhibitory effect on TGF-b induced endothelin-1 production; assay type: cell-based; details: Homo sapiens, Fibroblast; fibroblasts, stimulant (TGFb, serum, LPA etc), ET-1 in media by ELISA, 4-parameter fit
Procedure: Assay of Inhibitory Effect on TGF-b Induced Endothelin-1 Production
Fibroblasts (primary human lung and dermal, HFL-1, 3T3 etc) are seeded in 96-well plates at ˜15000 cells/well and serum starved for 0-48 hours. After media exchange, compounds serially diluted in DMSO are added to the cells. After a brief incubation of ˜30 min, stimulants (TGFb, serum, LPA etc) are added followed by further incubation for 16-48 hours. Media is then harvested and stored frozen in plate format for later endothelin-1 (ET-1) determination by ELISA. Toxicity measurements are made using the ATPlite kit (Perkin-Elmer). ET-1 is quantified using an ELISA kit (R&D Systems). The amount of ET-1 produced in the assay wells are back-calculated using the ELISA standard. The ability of a compound to inhibit ET-1 production is typically analyzed by fitting dose-response curves to a 4-parameter logistic function to obtain an EC50 value. A measure of cytotoxicity (CC50) is likewise reported from the same experiment using the ATPlite data.
Compounds of some embodiments were prepared according to synthetic methods described herein and assay data obtained for EC50 against ET-1. The assay data obtained is presented in Table 2, in which A=less than 50 μM, B=greater than or equal to 50 μM and less than or equal to 200 μM; and C=greater than 200 μM.

SMILES | EC50 [µM]
O=c1ccc(Br)cn1-c1ccc(F)cc1 [Compound 265] | > 200
COc1cccc(-n2cc(Br)ccc2=O)c1 [Compound 266] | > 200
CC(C)Oc1ccc(-n2cc(Br)ccc2=O)cc1 [Compound 267] | > 200
O=c1ccc(Br)cn1-c1cccc(C(F)(F)F)c1 [Compound 268] | > 200
O=c1ccc(Br)cn1-c1ccc(Cl)cc1 [Compound 269] | > 200
O=c1ccc(Br)cn1-c1ccc(OC(F)(F)F)cc1 [Compound 270] | > 200
CC(=O)Nc1cccc(-n2cc(Br)ccc2=O)c1 [Compound 271] | > 200
O=c1ccc(Br)cn1-c1cccc(F)c1 [Compound 272] | > 200
CCOc1ccc(-n2cc(Br)ccc2=O)c(C)c1 [Compound 273] | > 200
O=c1ccc(C(F)(F)F)cn1-c1cccc(F)c1 [Compound 274] | > 200
O=c1ccc(C(F)(F)F)cn1-c1ccc(OC(F)(F)F)cc1 [Compound 275] | > 200
CC(=O)Nc1cccc(-n2cc(C(F)(F)F)ccc2=O)c1 [Compound 277] | > 200
O=c1ccc(C(F)(F)F)cn1-c1cncnc1 [Compound 279] | > 200
O=c1ccc(C(F)(F)F)cn1-c1ccccc1Cl [Compound 281] | > 200
Cc1ccc(=O)n(-c2ccccc2F)c1 [Compound 283] | > 200
C#Cc1ccc(=O)n(-c2ccccc2)c1 [Compound 287] | > 200
CC(C)Oc1ccc(-n2cc(-c3ccc(F)cc3)ccc2=O)cc1 [Compound 288] | 50 to 200
O=c1ccc(-c2ccc(F)cc2)cn1-c1cccc(C(F)(F)F)c1 [Compound 289] | 50 to 200
O=c1ccc(-c2ccc(F)cc2)cn1-c1ccccc1Cl [Compound 291] | > 200
O=c1ccc(-c2ccccc2)cn1-c1ccc(F)cc1 [Compound 294] | 50 to 200
O=c1ccc(-c2ccccc2)cn1-c1cccc(F)c1 [Compound 296] | > 200
CCOc1ccc(-n2cc(-c3ccccc3)ccc2=O)c(C)c1 [Compound 298] | 50 to 200
O=c1ccc(-c2ccccc2)cn1-c1ccncc1 [Compound 299] | > 200

SMILES | EC50 [µM]
O=c1ccc(-c2ccccc2)cn1-c1ccccc1Cl [Compound 302] | 50 to 200
COc1ccc(-c2ccc(=O)n(-c3ccc(Cl)cc3)c2)cc1 [Compound 303] | 50 to 200
COc1ccc(-c2ccc(=O)n(-c3cccc(OC)c3)c2)cc1 [Compound 309] | 50 to 200
COc1ccc(-c2ccc(=O)n(-c3ccccc3Cl)c2)cc1 [Compound 310] | 50 to 200
COc1ccc(-c2ccc(=O)n(-c3cncnc3)c2)cc1 [Compound 311] | > 200
COc1ccc(-c2ccc(=O)n(-c3ccccc3F)c2)cc1 [Compound 312] | > 200
O=c1ccc(-c2cccc(Cl)c2)cn1-c1ccccc1 [Compound 313] | 50 to 200
O=c1ccc(-c2cccc(Cl)c2)cn1-c1ccc(Cl)cc1 [Compound 314] | < 50
COc1ccc(-n2cc(-c3cccc(Cl)c3)ccc2=O)cc1 [Compound 315] | < 50
O=c1ccc(-c2cccc(Cl)c2)cn1-c1cccc(C(F)(F)F)c1 [Compound 318] | < 50
COc1cccc(-n2cc(-c3cccc(Cl)c3)ccc2=O)c1 [Compound 319] | < 50
O=c1ccc(-c2cccc(Cl)c2)cn1-c1cccc(F)c1 [Compound 320] | < 50
CCOc1ccc(-n2cc(-c3cccc(Cl)c3)ccc2=O)c(C)c1 [Compound 321] | < 50
O=c1ccc(-c2cccc(Cl)c2)cn1-c1ccccc1Cl [Compound 322] | < 50
O=c1ccc(-c2cccc(Cl)c2)cn1-c1ccncc1 [Compound 323] | > 200
O=c1ccc(-c2cccc(Cl)c2)cn1-c1ccccc1F [Compound 324] | 50 to 200
NS(=O)(=O)c1ccc(-c2ccc(=O)n(-c3ccc(Cl)cc3)c2)cc1 [Compound 327] | > 200
COc1ccc(-n2cc(-c3ccc(S(N)(=O)=O)cc3)ccc2=O)cc1 [Compound 328] | > 200
NS(=O)(=O)c1ccc(-c2ccc(=O)n(-c3cccc(C(F)(F)F)c3)c2)cc1 [Compound 329] | > 200
CC(C)Oc1ccc(-n2cc(-c3ccc(S(N)(=O)=O)cc3)ccc2=O)cc1 [Compound 330] | > 200
COc1cccc(-n2cc(-c3ccc(S(N)(=O)=O)cc3)ccc2=O)c1 [Compound 331] | > 200
COc1ccc(-n2cc(C)ccc2=S)cc1 [Compound 332] | > 200
Cc1ccc(=S)n(-c2ccc(OC(C)C)cc2)c1 [Compound 334] | > 200

SMILES | EC50 [µM]
Cc1ccc(=S)n(-c2ccc(F)cc2)c1 [Compound 336] | > 200
Cc1ccc(=S)n(-c2cccc(F)c2)c1 [Compound 338] | > 200
O=c1ccc(-c2cncnc2)cn1-c1ccc(F)cc1 [Compound 344] | > 200
O=c1ccc(-c2cncnc2)cn1-c1cccc(F)c1 [Compound 345] | > 200
O=c1ccc(-c2cncnc2)cn1-c1ccccc1F [Compound 346] | > 200
O=c1ncc(-c2ccnnc2)cn1-c1ccc(OC(F)(F)F)cc1 [Compound 347] | 50 to 200
Cc1cc(C)c(=O)n(-c2ccccc2)c1 [Compound 349] | > 200
Cc1cc(-c2cnn(C)c2)cn(-c2ccc(OC(F)(F)F)cc2)c1=O [Compound 352] | 50 to 200
O=c1cc2ccccc2cn1-c1ccccc1 [Compound 354] | 50 to 200
Cn1cc(-c2cnc(=O)n(-c3ccccc3)c2)cn1 [Compound 355] | > 200
O=c1ncc(-c2ccc(F)cc2)cn1-c1ccccc1 [Compound 356] | 50 to 200
O=c1ncc(-c2ccc(F)cc2)cn1-c1ccc(OC(F)(F)F)cc1 [Compound 357] | > 200
Cc1ccc(=O)n(-c2ccccc2)n1 [Compound 359] | > 200
Cn1cc(-c2ccc(=O)n(-c3ccccc3)n2)cn1 [Compound 361] | > 200
O=c1ccc(-c2ccc(F)cc2)nn1-c1ccc(OC(F)(F)F)cc1 [Compound 362] | > 200
Cn1cc(-c2ccc(=O)n(-c3ccc(OC(F)(F)F)cc3)n2)cn1 [Compound 363] | > 200
Cn1cc(-c2cnc(=O)n(-c3ccc(OC(F)(F)F)cc3)c2)cn1 [Compound 364] | > 200
O=C1NC=CCN1c1ccccc1 [Compound 365] | > 200
Cc1cc(=O)n(-c2ccccc2)cc1C [Compound 366] | > 200
Cc1cc(=O)n(-c2ccc(OC(F)(F)F)cc2)cc1C [Compound 367] | > 200
Cc1cc(=O)n(-c2ccc(OC(F)(F)F)cc2)cc1C(F)(F)F [Compound 368] | > 200
CC(C)Oc1ccc(-n2cc(-c3cn[nH]c3)ccc2=O)cc1 [Compound 369] | 50 to 200
COc1ccc(-n2cc(-c3cn[nH]c3)ccc2=O)cc1 [Compound 370] | > 200

SMILES | EC50 [µM]
O=c1ccc(-c2cn[nH]c2)cn1-c1ccc(Cl)cc1 [Compound 371] | > 200
O=c1ccc(-c2cn[nH]c2)cn1-c1cccc(F)c1 [Compound 372] | > 200
O=c1ccc(-c2cn[nH]c2)cn1-c1cccc(C(F)(F)F)c1 [Compound 373] | > 200
COc1cccc(-n2cc(-c3cn[nH]c3)ccc2=O)c1 [Compound 375] | > 200
O=c1ccc(-c2cn[nH]c2)cn1-c1ccc(F)cc1 [Compound 377] | 50 to 200
COc1cccc(-n2cc(-c3c(C)n[nH]c3C)ccc2=O)c1 [Compound 378] | 50 to 200
Cc1n[nH]c(C)c1-c1ccc(=O)n(-c2ccc(F)cc2)c1 [Compound 379] | > 200
Cc1n[nH]c(C)c1-c1ccc(=O)n(-c2ccc(Cl)cc2)c1 [Compound 380] | > 200
Cc1n[nH]c(C)c1-c1ccc(=O)n(-c2cccc(F)c2)c1 [Compound 381] | > 200
Cc1n[nH]c(C)c1-c1ccc(=O)n(-c2ccc(OC(C)C)cc2)c1 [Compound 382] | 50 to 200
Cc1n[nH]c(C)c1-c1ccc(=O)n(-c2cccc(C(F)(F)F)c2)c1 [Compound 384] | 50 to 200
CC(C)n1cc(-c2ccc(=O)n(-c3ccccc3)c2)cn1 [Compound 388] | > 200
Cc1n[nH]c(C)c1-c1ccc(=O)n(-c2ccncc2)c1 [Compound 390] | > 200
O=c1c2c(ccn2Cc2ccccc2)c(-c2ccc(F)cc2)cn1-c1ccc(OC(F)(F)F)cc1 [Compound 392] | > 200
Cn1cc(-c2cn(-c3ccc(OC(F)(F)F)cc3)c(=O)c3c2OCC(=O)N3)cn1 [Compound 393] | > 200
Cn1cc(-c2cn(-c3ccc(Cl)cc3)c(=O)c3nccnc23)cn1 [Compound 397] | > 200
Cn1cc(-c2cn(-c3ccc(C#N)cc3)c(=O)c3nccnc23)cn1 [Compound 398] | > 200
N#Cc1cc(=O)n(-c2ccc(OC(F)(F)F)cc2)cc1-c1ccc(F)cc1 [Compound 401] | > 200
Cn1cc(-c2cn(-c3ccc(OC(F)(F)F)cc3)c(=O)cc2Oc2ccccc2F)cn1 [Compound 408] | > 200
Cn1cc(-c2cn(-c3ccc(OC(F)(F)F)cc3)c(=O)cc2Oc2cccc(F)c2)cn1 [Compound 409] | < 50
Cn1cc(-c2cn(-c3ccc(OC(F)(F)F)cc3)c(=O)cc2Oc2ccc(Cl)cc2)cn1 [Compound 412] | > 200
